In the supplement of paper PMC10949913:

Tests used:
Experiment in all cases: area under concentration-response curve (viability) (AUC (a.u.)); higher = less active
Conditions in all cases: 48 h
[1] = test system: CU-ACC1
In short: (§1)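 Concentration-response curves were fitted to obtain AC50 and area under the curve, keeping inhibitory or non-responding curve classes only. Data came from CellTiter-Glo luminescence, normalised per plate to vehicle and empty-well controls, in three adrenocortical carcinoma cell lines. These were treated in 1,536-well plates with library compounds at 11 concentrations and read after 48 h.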

[2] = test system: NCI-H295R
In short: as §1

[3] = test system: CU-ACC2
In short: as §1

Compound | area under concentration-response curve [1] | area under concentration-response curve [2] | area under concentration-response curve [3]
Cn1c(=O)c2c(ncn2C)n(C)c1=O | 479 | 498 | 533
COc1cc2c(cc1OC)CC(=O)N(CCCN(C)C[C@H]1Cc3cc(OC)c(OC)cc31)CC2 | 486 | 542 | 601
CNc1nc(Nc2ccc(C(=O)N3CCOCC3)cc2OC)ncc1Cl | 511 | 555 | 607
C#CCC(Cc1cnc2nc(N)nc(N)c2n1)c1ccc(C(=O)N[C@@H](CCC(=O)O)C(=O)O)cc1 (some centres undefined) | 552 | 546 | 509
N[S+](=O)([O-])c1cc2c(cc1Cl)NCN[S+]2(=O)[O-] | 480 | 430 | 563
CO[C@@H]1[C@H](N(C)C(=O)c2ccccc2)C[C@H]2O[C@]1(C)n1c3ccccc3c3c4c(c5c6ccccc6n2c5c31)C(=O)NC4 | 522 | 492 | 476
C[C@@H]1C(=O)OC2[C@H](O)[C@]34[C@H]5C[C@@H](C(C)(C)C)[C@]36[C@@H](OC(=O)[C@@H]6O)O[C@@]4(C(=O)O5)[C@]21O (some centres undefined) | 463 | 532 | 556
CCOP(=O)(OCC)C(C)NC(=O)N(CCCl)N=O (centres undefined) | 488 | 510 | 540
C[C@H](NC(=O)CCC(F)(F)F)C(=O)N[C@@H]1C(=O)N(CCO)c2ncccc2-c2ccccc21 | 472 | 475 | 511
CO[C@H]1C[C@@H]2CC[C@@H](C)[C@@](O)(O2)C(=O)C(=O)N2CCCC[C@H]2C(=O)O[C@H]([C@H](C)C[C@@H]2CC[C@@H](OC(=O)C(C)(CO)CO)[C@H](OC)C2)CC(=O)[C@H](C)/C=C(\C)[C@@H](O)[C@@H](OC)C(=O)[C@H](C)C[C@H](C)/C=C/C=C/C=C/1C | 488 | 530 | 483
Cc1nc[nH]c1CN1CCN(C(=O)N[C@@H](CC(C)C)C(=O)O)[C@@H](Cc2ccccc2)C1=O | 576 | 545 | 621
CCCC1=NC(=C2[N]1NC(=N\C2=O)/C3=CC(=CC=C3OCC)[S+]([O-])(=O)N4CCN(CC)CC4)C | 462 | 518 | 573
C\C1=C(/C)C(=O)\C(=C(\C)C1=O)C(CCCCCC(O)=O)C2=CC=CC=C2 (centres undefined) | 545 | 550 | 613
Cc1c(C)c2c(c(C)c1O)CCC(C)(COc1ccc(CC3SC(=O)NC3=O)cc1)O2 (centres undefined) | 369 | 492 | 511
C[N+](C)(C)CC(=O)O | 501 | 560 | 611
CC1(C)Cc2c(sc(NC(=S)NC(=O)c3ccccc3)c2C(=O)O)CO1 | 490 | 522 | 586
Cn1cc(-c2c[nH]c3ncnc(N4CCOCC4)c23)cn1 | 543 | 576 | 610
CN(C)[C@H]\1[C@@H]2[C@@H](O)[C@H]3\C(=C(O)/[C@]2(O)C(=O)\C(=C1O)C(N)=O)C(=O)C4=C(C=CC=C4O)[C@@]3(C)O | 593 | 530 | 625
